Laboratory results from US20100248226A1, “METHODS FOR MEASURING CELL RESPONSE TO DNA DAMAGING AGENTS USING PROMYELOCYTIC LEUKEMIA PROTEIN NUCLEAR BODIES” (priority 2006, published 2010).
Like-named read-outs stand apart in the source and are kept apart here.

Key:
[1] = test system: PML NBs in normal human diploid fibroblast (NHDF) cell line GM05757; type: cell-based
Source text: (§1) Cell Culture and drug treatments. Cell lines used in this study: NDHFs (GM05757, Coriell Cell Repository); human AT fibroblasts (a.k.a. AT5B1, GM05823; Coriell); human NBS-T fibroblasts (gift of J. Lukas, Danish Cancer Society, Copenhagen, Denmark); human ATLD fibroblasts (gift of Y. Shiloh, Tel Aviv University, Tel Aviv, Israel) Saos-2 (American Tissue Culture Type Collection (ATCC), HCT116 and p53 null HCT116 isogenic cells (gift of Dr. B. Vogelstein, Department of Oncology, John Hopkins University, Baltimore, Md.); ATR-DN and ATR-WT cells (gift of Dr. Paul Nghiem, University of Washington Medical School, Seattle, Wash.); Seckel syndrome cells (GM18366, Coriell); Chk2−/−MEFs and isogenic WT MEFs (gift of Dr. T. Mak, University of Toronto, Toronto); and isogenic and U2OS cells stably expressing GFP-PML IV (gift of J. Taylor, U. Wisconsin, Milwaukee, Wis.). NBST-pBabe and NBST-pBabe-NBS1 cells lines were generated by retroviral transduction of NBS-T fibroblasts using either pBabe-Puro alone or encoding full length human NBS1 (gift of J. Lukas), respectively. […] Alternately, asynchronous cell cultures were exposed to whole-cell ionizing radiation (IR)(dose range, 0-20 Gy) using a ^137Cs irradiator (MDS Nordion, Ottawa, Canada) at 1 Gy/min (on ice, aerobic conditions). […]
(§2) IF detection of proteins, live-cell imaging and fluorescence recovery after photobleaching (FRAP). […]

PML protein in NHDFs = type: cell-based, human; conditions: CHX 30 min prior and maintained
Source text: Cell Culture and drug treatments. Cell lines used in this study: NDHFs (GM05757, Coriell Cell Repository); human AT fibroblasts (a.k.a. AT5B1, GM05823; Coriell); human NBS-T fibroblasts (gift of J. Lukas, Danish Cancer Society, Copenhagen, Denmark); human ATLD fibroblasts (gift of Y. Shiloh, Tel Aviv University, Tel Aviv, Israel) Saos-2 (American Tissue Culture Type Collection (ATCC), HCT116 and p53 null HCT116 isogenic cells (gift of Dr. B. Vogelstein, Department of Oncology, John Hopkins University, Baltimore, Md.); ATR-DN and ATR-WT cells (gift of Dr. Paul Nghiem, University of Washington Medical School, Seattle, Wash.); Seckel syndrome cells (GM18366, Coriell); Chk2−/−MEFs and isogenic WT MEFs (gift of Dr. T. Mak, University of Toronto, Toronto); and isogenic and U2OS cells stably expressing GFP-PML IV (gift of J. Taylor, U. Wisconsin, Milwaukee, Wis.). NBST-pBabe and NBST-pBabe-NBS1 cells lines were generated by retroviral transduction of NBS-T fibroblasts using either pBabe-Puro alone or encoding full length human NBS1 (gift of J. Lukas), respectively. […] Alternately, asynchronous cell cultures were exposed to whole-cell ionizing radiation (IR)(dose range, 0-20 Gy) using a ^137Cs irradiator (MDS Nordion, Ottawa, Canada) at 1 Gy/min (on ice, aerobic conditions). […] Cells were then maintained in growth medium containing kinase inhibitors for the indicated time.

NHDFs = test: BrdU incorporation (DNA synthesis) after VP16, NHDF; type: cell-based, human; conditions: NHDFs treated with CHX, 18 h post-VP16 treatment
Method: Cells were prepared for immunolabelling as described (Eskiw et al., 2003). To label with BrdU, cells were pulsed with 20 μM BrdU for 30 minutes, fixed in methanol for 30 minutes at −20° C. The methanol was removed and 4N HCl was added to the cells for 2 minutes at room temperature (RT). Cells were washed 3× with PBS at RT. Primary antibodies used were: mouse anti-PML, clone 5E10 (1:10)(a gift from R. van Driel, University of Amsterdam, The Netherlands), rabbit anti-PML (1:1000)(Chemicon, AB1370); rabbit anti-Sp100 (1:500)(Chemicon, Ab1380); mouse anti-RPA (1:200)(Calbiochem, RPA34-20); mouse anti-phospho-Histone H3 (ser10) (1:500)(Upstate, MC463); rabbit anti-Cyclin A (1:200)(Santa Cruz, sc-751); mouse anti-SUMO1 (1:20)(Zymed, GMP-1); mouse anti-y-H2AX (1:500)(Upstate, JBW301); mouse anti-BrdU (1:10)(BD Biosciences, clone B44). Secondary antibodies used were donkey anti-mouse or rabbit Cy3 and Cy5 (Jackson Laboratories). […] For fluorescence microscopy, coverslips were mounted on glass slides using 90% glycerol/PBS containing 1 mg/ml paraphenlenediamine and 1 μg/ml 4′,6-Diamidino-2-phenylindole (DAPI). Images were collected on a Leica Microsystems DMRA2 upright microscope equipped with a Hamamatsu ORCA-ER camera using the 63×1.32 NA oil-immersion objective. […] OpenLab 3.5.1 (Improvision) software was used to collect images, and the images were processed with Photoshop 7.0 (Adobe). […]

[2] = test system: PML NBs in NHDF cell line GM05757; test: Kinase inhibitor effect on the PML NB number increase in response to DSBs; type: cell-based, human
Source text: as §1, §2

NHDFs (GM05757) = test: FACS cell cycle analysis; type: cell-based, human; conditions: NHDFs by 18 h after VP16 treatment
Method: Cells were harvested and pelleted. The pellet was resuspended in 50 μl HBSS with 2% FBS. Cells were fixed with 1 ml ice-cold 80% ethanol for 30 minutes on ice. Cells were pelleted and resuspended in HBSS containing 0.1 mg/ml propidium iodide (Sigma) and 0.6% NP-40 to final concentration of 2×10^6 cells/ml. An equal volume of 2 mg/ml RNase in HBSS was added and incubated at room temperature in the dark for 30 minutes. This solution was then filtered through a 40 μm nylon mesh (BD Biosciences) and keep on ice until analysis. Cells were analyzed on a FACscan flowcytometer (BD Biosciences). Data analysis was performed using FlowJo 6.0 (Tree Star).

[3] = test system: PML NBs in NHDFs (GM05757); test: Correlative LM/ESI ultrastructure of PML NBs; type: cell-based, human; conditions: 20 μM VP16 for 30 min, NHDF
Method: Correlative Microscopy and Electron Spectroscopic Imaging—Samples were prepared and sectioned for correlative microscopy and electron spectroscopic imaging (ESI) as previously described (Eskiw et al., 2003; Dellaire et al., 2004). Nitrogen and phosphorus maps were collected using an FEI Technai 20 transmission electron microscope fitted with an electron imaging spectrometer (Gatan). Immuno-gold labeling was accomplished using a secondary antibody conjugated to Ultra-small nanogold (donkey anti-rabbit, EMS, Cat. 25100).

C[C@@H]1C[C@@H]([C@H](O)CC2CC(=O)NC(=O)C2)C(=O)[C@@H](C)C1 [CHX, cycloheximide]
PML NB number initially, compared to untreated cells ([1]; CHX-treated NHDFs, VP16 treatment): higher number of PML NBs initially | effect on DNA damage-dependent increase in PML protein levels (PML protein in NHDFs; 4 h after VP16): little effect | effect on DNA damage-dependent increase in PML protein levels (PML protein in NHDFs; 12 h after VP16): inhibited | BrdU incorporation (NHDFs): no BrdU incorporation

NC(=O)c1ccc2nc(-c3ccc(Oc4ccc(Cl)cc4)cc3)[nH]c2c1 [Chk2 kinase inhibitor II]
effect on PML NB number at 3 h following VP16 treatment ([2]; 10 μM Chk2 inhibitor II or 20 μM wortmannin pre-treatment, versus VP16 without inhibitor): significantly reduce | effect on the initial increase in PML NBs in response to VP16 ([2]; 10 μM inhibitor pre-treatment, 30 min time point): did not affect

COc1cc([C@@H]2c3cc4c(cc3[C@@H](O[C@@H]3O[C@@H]5CO[C@@H](C)O[C@H]5[C@H](O)[C@H]3O)[C@H]3COC(=O)[C@H]23)OCO4)cc(OC)c1O [VP16, etoposide]
cell cycle distribution (NHDFs (GM05757)): marked accumulation in G1 and G2 phase | PML NB ultrastructure (symmetry, chromatin contacts) [3]: lose their radial symmetry and make fewer contacts with the surrounding chromatin fibres

COc1cccc2c1C(=O)c1c(O)c3c(c(O)c1C2=O)C[C@@](O)(C(=O)CO)C[C@@H]3O[C@H]1C[C@H](N)[C@H](O)[C@H](C)O1 [doxorubicin]
time after treatment at which γ-H2AX signal and PML NB number peaked ([1]; 20 μM VP16 or 1.5 μM doxorubicin for 30 min, NHDF GM05757): 3 h
